Results as given in US20140249135A1, “PIM KINASE INHIBITORS AND METHODS OF THEIR USE” (NOVARTIS AG, priority 2007, published 2014).
Read-outs that look alike come from different tables or passages of the source.

Legend:
Pim1 kinase = Pim1 kinase (Homo sapiens, UniProt P11309); experiment: Pim1 ATP depletion assay; type: biochemical; conditions: Pim1 ATP depletion assay;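 also: Luciferase-luciferin luminescence readout of residual ATP after PIM1 transfers phosphate to a peptide substrate, 40 µM ATP added, reaction run to roughly half ATP consumption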
Chain of Pim1 kinase (P11309 whole entry): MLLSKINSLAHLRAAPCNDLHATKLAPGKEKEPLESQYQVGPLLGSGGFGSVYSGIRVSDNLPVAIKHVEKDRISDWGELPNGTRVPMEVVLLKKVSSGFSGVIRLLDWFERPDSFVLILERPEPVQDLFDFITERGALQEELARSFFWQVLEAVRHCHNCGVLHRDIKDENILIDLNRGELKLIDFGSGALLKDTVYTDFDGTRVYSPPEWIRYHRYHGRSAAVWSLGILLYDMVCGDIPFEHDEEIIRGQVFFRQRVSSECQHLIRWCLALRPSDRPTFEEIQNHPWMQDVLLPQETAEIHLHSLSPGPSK

Pim2 kinase = Pim2 kinase (Homo sapiens, UniProt Q9P1W9); experiment: Pim2 ATP depletion assay; type: biochemical;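 also: Luciferase-based luminescent readout of ATP remaining after PIM2 phosphorylates a BAD peptide, final 5 nM enzyme, 4 µM ATP, 10 µM peptide, 2.5% DMSO, run to roughly half ATP consumption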
Chain of Pim2 kinase (Q9P1W9 whole entry): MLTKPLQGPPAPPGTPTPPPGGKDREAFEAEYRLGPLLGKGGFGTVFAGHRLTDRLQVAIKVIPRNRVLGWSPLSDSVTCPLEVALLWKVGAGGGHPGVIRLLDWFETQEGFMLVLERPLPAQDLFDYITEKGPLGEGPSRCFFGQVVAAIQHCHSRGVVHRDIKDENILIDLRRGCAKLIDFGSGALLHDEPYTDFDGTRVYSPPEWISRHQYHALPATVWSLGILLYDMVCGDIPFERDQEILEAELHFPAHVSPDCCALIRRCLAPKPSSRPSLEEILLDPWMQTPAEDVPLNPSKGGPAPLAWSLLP

Pim3 kinase = Pim3 kinase (Homo sapiens, UniProt Q86V86); experiment: Pim3 ATP depletion assay; type: biochemical
KDR kinase = KDR kinase (Homo sapiens, UniProt P35968); experiment: KDR AlphaScreen assay; conditions: KDR IC50 (μM)
Chain of KDR kinase (P35968 20-1356): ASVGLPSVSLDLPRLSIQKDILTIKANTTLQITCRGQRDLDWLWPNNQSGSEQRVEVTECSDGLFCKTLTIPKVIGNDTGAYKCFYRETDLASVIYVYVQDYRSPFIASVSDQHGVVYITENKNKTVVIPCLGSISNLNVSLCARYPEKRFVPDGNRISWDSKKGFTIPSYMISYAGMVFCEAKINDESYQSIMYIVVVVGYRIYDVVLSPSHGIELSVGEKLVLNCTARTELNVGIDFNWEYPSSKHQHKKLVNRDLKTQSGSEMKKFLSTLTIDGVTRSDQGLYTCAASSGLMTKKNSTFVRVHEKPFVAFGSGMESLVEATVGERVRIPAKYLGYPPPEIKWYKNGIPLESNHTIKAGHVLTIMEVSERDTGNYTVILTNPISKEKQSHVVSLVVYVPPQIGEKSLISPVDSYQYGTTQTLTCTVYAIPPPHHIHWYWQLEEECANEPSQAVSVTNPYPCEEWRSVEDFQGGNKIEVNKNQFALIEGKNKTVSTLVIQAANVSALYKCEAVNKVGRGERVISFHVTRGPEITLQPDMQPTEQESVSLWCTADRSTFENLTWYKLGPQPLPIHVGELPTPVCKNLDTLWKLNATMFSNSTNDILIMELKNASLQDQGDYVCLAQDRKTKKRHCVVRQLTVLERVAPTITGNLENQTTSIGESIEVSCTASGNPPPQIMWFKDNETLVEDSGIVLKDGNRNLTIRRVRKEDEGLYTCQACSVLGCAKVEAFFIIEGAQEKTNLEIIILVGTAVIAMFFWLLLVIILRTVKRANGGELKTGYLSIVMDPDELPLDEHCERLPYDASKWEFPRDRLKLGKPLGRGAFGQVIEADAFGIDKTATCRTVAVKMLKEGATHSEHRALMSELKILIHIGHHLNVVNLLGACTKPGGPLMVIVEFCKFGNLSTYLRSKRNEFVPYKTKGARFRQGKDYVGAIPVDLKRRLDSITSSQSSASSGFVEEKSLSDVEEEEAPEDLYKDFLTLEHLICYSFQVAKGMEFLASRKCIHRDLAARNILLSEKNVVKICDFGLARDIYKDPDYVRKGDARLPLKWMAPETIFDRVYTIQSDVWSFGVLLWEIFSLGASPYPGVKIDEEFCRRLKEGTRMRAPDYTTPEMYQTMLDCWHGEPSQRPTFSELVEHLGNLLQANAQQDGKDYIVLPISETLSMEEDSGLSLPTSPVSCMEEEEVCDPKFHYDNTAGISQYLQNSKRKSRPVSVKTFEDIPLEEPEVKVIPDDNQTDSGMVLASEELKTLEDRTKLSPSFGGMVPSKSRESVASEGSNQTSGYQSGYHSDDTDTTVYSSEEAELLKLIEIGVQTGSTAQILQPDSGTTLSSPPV

Structure (SMILES) | IC50 (Pim1 kinase; read-out: IC50 (μM) PIM1) | IC50 (Pim2 kinase; read-out: IC50 (μM) PIM2) | IC50 (Pim3 kinase; read-out: IC50 (μM) PIM3) | IC50 (KDR kinase) | IC50 (Pim1 kinase; read-out: PIM1 IC50) | IC50 (Pim2 kinase; read-out: PIM2 IC50) | IC50 (Pim3 kinase; read-out: PIM3 IC50)
Nc1ccc(-c2cnc(N)c(OCC(F)(F)F)n2)nc1C(=O)Nc1cnccc1N1CCC[C@H](N)C1 [Example 519, 3-Amino-6-[5-amino-6-(2,2,2-trifluoro-ethoxy)-pyrazin-2-yl]-pyridine-2-carboxylic acid (3-amino-3,4,5,6-tetrahydro-2H-[1,4′]bipyridinyl-3′-yl)-amide] | < 1 µM | < 1 µM | < 1 µM | 10 to 25 µM | – | – | –
Nc1ccc(-c2cncc(OCC3CC3)n2)nc1C(=O)Nc1cnccc1N1CCC[C@H](N)C1 [Example 521, 3-Amino-6-(6-cyclopropylmethoxy-pyrazin-2-yl)-pyridine-2-carboxylic acid (3-amino-3,4,5,6-tetrahydro-2H-[1,4′]bipyridinyl-3′-yl)-amide] | < 1 µM | < 1 µM | < 1 µM | 1 to 10 µM | – | – | –
Nc1ccc(-c2cncc(O)n2)nc1C(=O)Nc1cnccc1N1CCC[C@H](N)C1 [Example 522, 3-Amino-6-(6-hydroxy-pyrazin-2-yl)-pyridine-2-carboxylic acid (3-amino-3,4,5,6-tetrahydro-2H-[1,4′]bipyridinyl-3′-yl)-amide] | < 1 µM | < 1 µM | < 1 µM | 1 to 10 µM | – | – | –
CC(C)COc1cncc(-c2ccc(N)c(C(=O)Nc3cnccc3N3CCC[C@H](N)C3)n2)n1 [Example 523, 3-Amino-6-(6-isobutoxy-pyrazin-2-yl)-pyridine-2-carboxylic acid (3-amino-3,4,5,6-tetrahydro-2H-[1,4′]bipyridinyl-3′-yl)-amide] | < 1 µM | < 1 µM | < 1 µM | 10 to 25 µM | – | – | –
Nc1ccc(-c2ccccc2)nc1C(=O)Nc1cnccc1N1CCC[C@H](N)C1 [Example 524, 3-Amino-6-phenyl-pyridine-2-carboxylic acid (3-amino-3,4,5,6-tetrahydro-2H-[1,4′]bipyridinyl-3′-yl)-amide] | < 1 µM | < 1 µM | < 1 µM | 1 to 10 µM | – | – | –
CSc1nc(N)cc(-c2ccncc2NC(=O)c2nc(-c3cc(C(=O)NC(C)C)ccc3F)ccc2N)n1 [Example 534, 3-Amino-6-(2-fluoro-5-isopropylcarbamoyl-phenyl)-pyridine-2-carboxylic acid [4-(6-amino-2-methylsulfanyl-pyrimidin-4-yl)-pyridin-3-yl]-amide] | < 1 µM | < 1 µM | < 1 µM | 1 to 10 µM | – | – | –
CSc1nc(N)cc(-c2ccncc2NC(=O)c2nc(-c3cc(C(=O)N(C)C)ccc3F)ccc2N)n1 [Example 535, 3-Amino-6-(5-dimethylcarbamoyl-2-fluoro-phenyl)-pyridine-2-carboxylic acid [4-(6-amino-2-methylsulfanyl-pyrimidin-4-yl)-pyridin-3-yl]-amide] | – | – | – | 10 to 25 µM | < 1 µM | < 1 µM | < 1 µM
Cc1cc(-c2ccncc2NC(=O)c2nc(-c3c(F)ccc(OC(C)C)c3F)ccc2N)cc(N)n1 [Example 538, 3-Amino-6-(2,6-difluoro-3-isopropoxy-phenyl)-pyridine-2-carboxylic acid (2′-amino-6′-methyl-[4,4′]bipyridinyl-3-yl)-amide] | – | – | – | 10 to 25 µM | < 1 µM | < 1 µM | < 1 µM
CC(C)NC(=O)c1ccc(F)c(-c2ncc(N)c(C(=O)Nc3cnccc3N3CCC[C@H](N)C3)n2)c1 [Example 542, 5-Amino-2-(2-fluoro-5-isopropylcarbamoyl-phenyl)-pyrimidine-4-carboxylic acid (3-amino-3,4,5,6-tetrahydro-2H-[1,4′]bipyridinyl-3′-yl)-amide] | – | – | – | 10 to 25 µM | < 1 µM | < 1 µM | < 1 µM
Cc1ccc(F)c(-c2ncc(N)c(C(=O)Nc3cnccc3N3CCC[C@H](N)C3)n2)c1 [Example 543, 5-Amino-2-(2-fluoro-5-methyl-phenyl)-pyrimidine-4-carboxylic acid (3-amino-3,4,5,6-tetrahydro-2H-[1,4′]bipyridinyl-3′-yl)-amide] | – | – | – | 10 to 25 µM | < 1 µM | < 1 µM | < 1 µM
CC(=O)Nc1cccc(-c2ncc(N)c(C(=O)Nc3cnccc3N3CCC[C@H](N)C3)n2)c1 [Example 544, 2-(3-Acetylamino-phenyl)-5-amino-pyrimidine-4-carboxylic acid (3-amino-3,4,5,6-tetrahydro-2H-[1,4′]bipyridinyl-3′-yl)-amide] | – | – | – | 10 to 25 µM | < 1 µM | < 1 µM | < 1 µM
CCCOc1ccc(F)c(-c2ncc(N)c(C(=O)Nc3cnccc3N3CCC[C@H](N)C3)n2)c1F [Example 545, 5-Amino-2-(2,6-difluoro-3-propoxy-phenyl)-pyrimidine-4-carboxylic acid (3-amino-3,4,5,6-tetrahydro-2H-[1,4′]bipyridinyl-3′-yl)-amide] | – | – | – | 10 to 25 µM | < 1 µM | < 1 µM | < 1 µM
Nc1cnc(-c2ccc(Cl)cc2F)nc1C(=O)Nc1cnccc1N1CCC[C@H](N)C1 [Example 547, 5-Amino-2-(4-chloro-2-fluoro-phenyl)-pyrimidine-4-carboxylic acid (3-amino-3,4,5,6-tetrahydro-2H-[1,4′]bipyridinyl-3′-yl)-amide] | – | – | – | 10 to 25 µM | < 1 µM | < 1 µM | < 1 µM
COc1ccc(F)c(-c2ncc(N)c(C(=O)Nc3cnccc3N3CCC[C@H](N)C3)n2)c1 [Example 549, 5-Amino-2-(2-fluoro-5-methoxy-phenyl)-pyrimidine-4-carboxylic acid (3-amino-3,4,5,6-tetrahydro-2H-[1,4′]bipyridinyl-3′-yl)-amide] | – | – | – | 10 to 25 µM | < 1 µM | < 1 µM | < 1 µM
CCCOc1ccc(F)c(-c2ncc(N)c(C(=O)Nc3cnccc3N3CCC[C@H](N)C3)n2)c1 [Example 550, 5-Amino-2-(2-fluoro-5-propoxy-phenyl)-pyrimidine-4-carboxylic acid (3-amino-3,4,5,6-tetrahydro-2H-[1,4′]bipyridinyl-3′-yl)-amide] | – | – | – | 10 to 25 µM | < 1 µM | < 1 µM | < 1 µM
Cc1cnc(O)cc1-c1ccncc1NC(=O)c1nc(-c2c(F)cccc2F)ccc1N [Example 612, 3-amino-6-(2,6-difluorophenyl)-N-(2′-hydroxy-5′-methyl-4,4′-bipyridin-3-yl)pyridine-2-carboxamide] | – | – | – | 1 to 10 µM | < 1 µM | 1 to 10 µM | < 1 µM
Nc1ccc(-c2ccccc2F)nc1C(=O)Nc1cnccc1-c1ccnc(O)c1 [Example 614, 3-amino-6-(2-fluorophenyl)-N-(2′-hydroxy-4,4′-bipyridin-3-yl)pyridine-2-carboxamide] | – | – | – | 1 to 10 µM | < 1 µM | < 1 µM | < 1 µM
Nc1cc(-c2ccncc2NC(=O)c2nc(-c3c(F)cccc3F)ccc2N)ncn1 [Example 629, 3-amino-N-[4-(6-aminopyrimidin-4-yl)pyridin-3-yl]-6-(2,6-difluoro-phenyl)pyridine-2-carboxamide] | – | – | – | 10 to 25 µM | < 1 µM | < 1 µM | < 1 µM
Nc1ccc(C2CCCC2)nc1C(=O)Nc1cnccc1N1CCC[C@H](N)C1 [Example 644, 3-Amino-6-cyclopentyl-pyridine-2-carboxylic acid (3-amino-3,4,5,6-tetrahydro-2H-[1,4′]bipyridinyl-3′-yl)-amide] | – | – | – | 10 to 25 µM | < 1 µM | < 1 µM | < 1 µM
Nc1cnc(-c2c(F)cccc2F)nc1C(=O)Nc1cnccc1N1CCC[C@H](O)C1 [Example 648, 5-Amino-2-(2,6-difluoro-phenyl)-pyrimidine-4-carboxylic acid (3-hydroxy-3,4,5,6-tetrahydro-2H-[1,4′]bi-pyridinyl-3′-yl)-amide] | – | – | – | 10 to 25 µM | < 1 µM | < 1 µM | < 1 µM
Nc1cnc(-c2ccccc2F)nc1C(=O)Nc1cnccc1N1CCC[C@H](O)C1 [Example 649, 5-Amino-2-(2-fluoro-phenyl)-pyrimidine-4-carboxylic acid (3-hydroxy-3,4,5,6-tetrahydro-2H-[1,4′]bipyridinyl-3′-yl)-amide] | – | – | – | 10 to 25 µM | < 1 µM | < 1 µM | < 1 µM
Nc1cnc(-c2ccccc2)nc1C(=O)Nc1cnccc1N1CCC[C@H](O)C1 [Example 650, 5-Amino-2-phenyl-pyrimidine-4-carboxylic acid (3-hydroxy-3,4,5,6-tetrahydro-2H-[1,4′]bi-pyridinyl-3′-yl)-amide] | – | – | – | 10 to 25 µM | < 1 µM | < 1 µM | < 1 µM
